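Cells were grown in 96-well plates and exposed to each compound for 48 hours at five concentrations; endpoints were interpolated linearly between bracketing concentrations, or set to the highest concentration if not reached. GI50 = concentration required for 50% inhibition of growth. TGI marks complete inhibition of growth.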 A value given as a limit tells only on which side of the number the result lay.

Common to all, as to assay: NCI-60 cell line screen, 48 h
Assay [1] relates to HCC-2998 colon.
The test system of assay [2] is A549 NSCLC.
Assay [3] concerns A498 renal.
The test system of assay [4] is U251 CNS.
Assay [5] has as its system SNB-19 CNS.
Assay [6] has as its system HT29 colon.
The subject of assay [7] is OVCAR-3 ovarian.
Assay [8] deals with CAKI-1 renal.
Assay [9] deals with NCI/ADR-RES ovarian.

For the molecule `COc1ccc2c3c([nH]c2c1[N+](=O)[O-])C(C)N(C(=O)/C=C/c1ccccc1)CC3` (configuration not stated), the TGI in [1] is over 100 µM; in [2], 29.2 µM; in [3] it was 8.31 µM; in assay [4], over 100 µM; in [5] it was over 100 µM; in [6] it was over 100 µM. Also, the TGI in assay [7] and in assay [8] was over 100 µM throughout.
`CC(=O)N1C(=O)C(=O)c2cc(Cl)ccc21`: the TGI in assay [1], in assay [2], in [3], in assay [4], in assay [5] and in assay [6] was over 100 µM throughout. For the same molecule, in [7], the TGI is over 100 µM.
For `CCCCCCCCCCSS(=O)(=O)c1ccc(C)cc1`, the TGI worked out at 39.3 µM in assay [1]; 29.8 µM in assay [2]; 35 µM in assay [3]; 14.3 µM in assay [4]; 27.6 µM in [5]; 23.9 µM in [6]. Also, the TGI was 33.1 µM in [7] and 31.2 µM in assay [8].
In the case of `CC(=O)[CH-]C(=O)c1ccccc1.CC(=O)[CH-]C(=O)c1ccccc1.CC(C)CCCC(C)[C@H]1CCC2[C@@H]3CCC4C[C@@H]([O-])CC[C@]4(C)C3CC[C@@]21C.CC(C)CCCC(C)[C@H]1CCC2[C@@H]3CCC4C[C@@H]([O-])CC[C@]4(C)C3CC[C@@]21C.Cl.[Ti+4]` (some centres not stated), the GI50 in assay [1], in assay [2], in assay [3], in [4], in assay [5] and in [6] was over 25 µM each time. For the same molecule, the GI50 in assay [7] and in [8] was over 25 µM throughout. For the same molecule, the TGI in assay [1], in [2], in assay [3], in assay [4], in [5] and in [6] was over 25 µM in each case. Besides, the TGI in assay [7] and in [8] was over 25 µM each time.
Take `C=CCCC12CCCC(=O)C1Sc1ccc3ccccc3c12` (configuration not stated): the TGI in assay [1] amounted to 34.2 µM; in assay [2], 24.5 µM; in assay [3], 26.1 µM; in assay [4] it was 33.6 µM; in assay [5], 96 µM; in [6], 67.2 µM. The results for the TGI in [7] and in assay [8] were 29 µM and 26.4 µM, respectively.
Consider `CC(C)[C@H](COC(C)(C)C)N=CN1CSc2ccccc21`, for which the TGI in [1], in assay [2], in assay [3], in assay [4], in [5] and in [6] was over 100 µM in each case. The molecule also had a TGI in [7] of 58.2 µM.
For the molecule `O=C(CN1C(=O)c2ccccc2C1=O)OC1C=CCCC1` (configuration not stated), the TGI in assay [1], in [2], in [3], in assay [4], in [5] and in assay [8] was over 100 µM each time.
Take `COC(=O)/C=C\C1C(C(=O)OC)C2(C(=O)OC)CCC1(C(=O)OC)N2` (configuration not stated): the TGI in [1] was found to be 31.2 µM; in assay [2] it was 39.9 µM; in [3], 32.9 µM; in assay [4] it was 32.7 µM; in assay [5], 23.8 µM; in assay [6] it was 45.7 µM. Besides, the figures for the TGI in assay [7] and in assay [8] were 28.7 µM and 6.82 µM, respectively.
In the case of `COc1ccc2c(CCNS(=O)(=O)c3ccccc3)c(C(C)=O)[nH]c2c1[N+](=O)[O-]`, the TGI in [1], in assay [2], in assay [3], in [4], in assay [5] and in assay [6] was over 100 µM in each case. The molecule also yielded a TGI in [7] of over 100 µM.
On to `CC[O+]=c1cccc2ssnc1-2`, for which the TGI in assay [1], in [2], in assay [3], in [4], in assay [5] and in assay [6] was over 100 µM each time. Also, the figures for the TGI in assay [7] and in assay [8] were 99.8 µM and over 100 µM, respectively.
With `CC(=O)C1C(=O)C(=O)N(c2ccc(Cl)cc2C)C1=O` (configuration not stated), the TGI in [1], in assay [2], in [3], in [4], in assay [5] and in assay [6] was over 100 µM each time.
Take `O=c1cc(-c2ccccc2)oc2cc(OCc3cn(Cc4ccc(F)cc4)nn3)cc(O)c12`: the GI50 in assay [1] is over 100 µM; in [2], 19.6 µM; in [3] it was 42 µM; in [4], 13.9 µM; in assay [9], 5.57 µM; in assay [5] it was 4.51 µM. The GI50 in assay [6] is over 100 µM; in assay [8], 5.76 µM. Further, the TGI in assay [1] was over 100 µM; in assay [2], over 100 µM; in assay [3], over 100 µM; in [4] it was over 100 µM; in assay [9], over 100 µM; in assay [5] it was 83.2 µM. In addition, the TGI in assay [6] and in [8] was over 100 µM each time.
On to `CCC1(c2ccncc2)CCC(=O)NC1=O` (configuration not stated), for which the TGI in assay [1], in [2], in [3], in [4], in [5] and in assay [6] was over 100 µM each time. Besides, the TGI in assay [7] and in assay [8] was over 100 µM in each case.
For `CC1=C(CC/C(C)=C/CCC2(C)CCC([C@H](C)C(=O)O)OO2)C(C)(C)CCC1` (some centres not stated) (tested in a mixture with another compound), the TGI in assay [1], in [2], in assay [4], in assay [5], in [6] and in assay [7] was over 100 µM throughout. In assay [8], the TGI was over 100 µM.
In the case of `O=c1c2ccccc2c(C=NCCNCCO)c2oc3ccccc3n12`, the GI50 in assay [1] is 13.1 µM; in assay [2], 4.03 µM; in assay [4] it was 6.24 µM; in assay [9], 13.8 µM; in assay [5], 6.33 µM; in [6], 3.33 µM. The GI50 in assay [7] was 11.7 µM; in [8], 4.08 µM. Moreover, the TGI in [1] is 25.8 µM; in [2], 17 µM; in assay [4], 19.5 µM; in [9] it was 26.7 µM; in [5], 19.6 µM; in assay [6] it was 16.5 µM. The TGI in assay [7] was determined as 24 µM; in assay [8], 15.5 µM.
Turning to `COc1cc2c(C#N)n3c(c2cc1OC)C(=O)C(c1ccccc1)Oc1ccccc1-3` (configuration not stated), the GI50 was over 100 µM in assay [1]; 2.87 µM in assay [2]; 1.85 µM in assay [3]; 2.77 µM in [4]; 3.05 µM in assay [9]; 3.53 µM in assay [5]. Also, the GI50 in assay [7] is 4.48 µM. Further, the TGI is over 100 µM in assay [1]; over 100 µM in [2]; 9.15 µM in [3]; over 100 µM in [4]; over 100 µM in [9]; over 100 µM in assay [5]. In [7], this molecule registered a TGI of over 100 µM.
In the case of `C/C(=C\c1ccccc1)C(O)S(=O)(=O)O` (configuration not stated), the TGI in assay [1], in assay [2], in assay [3], in [4], in assay [5] and in assay [6] was over 100 µM in each case. The TGI in assay [7] and in [8] was over 100 µM in each case.
Consider `C=CC1(C)/C(=N\O)C(C)(CC)C(=O)N1O` (configuration not stated), for which the TGI in assay [2], in assay [3], in [4], in assay [5], in assay [6] and in [7] was over 100 µM throughout. The TGI in assay [8] is over 100 µM.
For `COc1cccc(C(=O)O)c1Cc1cccc2ccccc12`, the TGI in [1], in assay [2], in [4], in assay [5], in assay [6] and in assay [7] was over 100 µM each time. The same molecule yielded a TGI in [8] of over 100 µM.
With `COC(=O)/C1=C/C2CC(/C=C(/c3ccccc3)C(=O)O1)C2`, the TGI is over 100 µM in assay [2]; 49.3 µM in assay [4]; over 100 µM in assay [5]; 65.4 µM in assay [6]; over 100 µM in assay [7].
As to `CP(=O)(CCSc1ccccc1)c1ccccc1` (configuration not stated), the TGI in assay [1], in assay [2], in assay [3], in assay [4], in assay [5] and in assay [6] was over 100 µM each time. The TGI in assay [7] and in [8] was over 100 µM each time.
Consider `O=S(O)CCCCSSCCCCS(=O)(O)=S`, for which the TGI in assay [1], in assay [2], in assay [3], in assay [4], in assay [5] and in [6] was over 100 µM each time. The TGI in assay [7] and in assay [8] was over 100 µM throughout.
As for `c1ccc2c(c1)[Se]c1ccccc1[Se]2`, the TGI in [2], in [3], in [4], in [5], in assay [6] and in [7] was over 100 µM throughout. In addition, in assay [8], the TGI was over 100 µM.
Take `CC(C)c1cccc2sc(NC(=O)C(=O)CC(=O)c3ccc(F)cc3)nc12`: the TGI in assay [2], in assay [3], in assay [4], in assay [5], in [6] and in [7] was over 100 µM in each case. The same molecule registered a TGI in assay [8] of over 100 µM.
In the case of `CN1NC(c2ccccc2)=C(C#N)C(=O)CC1c1ccccc1Cl` (configuration not stated), the TGI in [1], in [2], in [4], in assay [5], in [6] and in assay [8] was over 100 µM in each case.
As to `CCC(=O)[O-].CCC(=O)[O-].N.N.N.N.[Co+3].[O-][Cl+3]([O-])([O-])[O-]`, the GI50 in [1], in [2], in assay [3], in [4], in assay [5] and in [6] was over 100 µM in each case. For the same molecule, the GI50 in assay [7] was over 100 µM. Also, the TGI in assay [1], in assay [2], in [3], in [4], in assay [5] and in assay [6] was over 100 µM each time. Moreover, the TGI in assay [7] is over 100 µM.
As for `CCCC(=O)C(CC)/C(CCC(=O)N(Cc1ccccc1)Cc1ccccc1)=N/NC(=O)C[N+](C)(C)C` (configuration not stated), the TGI in assay [2], in [3], in [4], in assay [5], in assay [6] and in assay [7] was over 100 µM throughout. Also, in assay [8], the TGI was over 100 µM.
With `NC(N)=NS(=O)(=O)c1ccc(NC(=O)c2ccc(Cl)c3c(Nc4ccc(S(=O)(=O)N=C(N)N)cc4)c4ccccc4nc23)cc1`, the TGI in [2], in [3], in [4], in [5], in [6] and in [7] was over 100 µM throughout. The molecule further yielded a TGI in assay [8] of over 100 µM.
Consider `CCOc1ccccc1N=C(NC(=O)CC)SC`, for which the GI50 in assay [1], in [2], in [3], in [4], in [5] and in assay [6] was over 100 µM in each case. For the same molecule, the GI50 in assay [7] and in assay [8] was over 100 µM each time. Further, the TGI in assay [1], in assay [2], in [3], in [4], in [5] and in [6] was over 100 µM throughout. For the same molecule, the TGI in [7] and in [8] was over 100 µM throughout.

Values taken from PubChem BioAssay (NCI).
